Assay results as given in patent US9771389B2, “Tylosin derivatives and method for preparation thereof” (BAYER ANIMAL HEALTH GMBH, priority 2013, dated 2017).
In brackets after ≈: the same amount, converted by molar mass.

What was measured:
[1] = system: Mannheimia haemolytica, 3 isolates; assay: MIC against Mannheimia haemolytica isolates; assay type: cell-based; conditions: Mannheimia haemolytica, 3ISOLATES, 3 Mannheimia haemolytica isolates; broth dilution method; read-out: Range of minimum inhibitory concentrations (MIC)
Protocol: (§1) Minimal inhibitory concentrations (MICs) were determined against the most prevalent pathogens in cattle (Mannheimia Haemolytica, 3 isolates) and swine (A. pleuropneumoniae, 6 isolates). In addition the activity of several compounds was tested against two bacterial species, i.e. Mannheimia haemolytica and Actinobacillus pleuropneumoniae, which are considered as the most important bacterial respiratory pathogens in cattle and swine, respectively.

[2] = system: Actinobacillus pleuropneumoniae, 6 isolates; assay: MIC against Actinobacillus pleuropneumoniae isolates; assay type: cell-based; conditions: 6ISOLATES; 6 Actinobacillus pleuropneumoniae isolates; broth dilution method; read-out: Range of minimum inhibitory concentrations (MIC)
Protocol: as §1

[3] = system: Bacillus subtilis ATCC6633; assay: Paper disc assay, Bacillus subtilis; assay type: cell-based; conditions: S
Protocol: (§2) (2) Antibacterial activities against other bacteria were determined with Micrococcus luteus ATCC9341 (1), Bacillus subtilis […] (s), Escherichia coli NIHJ (c), Xanthomonas campestris KB88 (X), Mucor racemosus IFO 4581 (Mu) and Candida albicans ATCC 64548 (Ca).
(§3) Bacillus subtilis ATCC6633 was incubated in Davis synthetic medium and then the seed broth was combined with the medium in the ratio of 1:99 to obtain a test plate. Micrococcus luteus ATCC9341, Escherichia coli NIHJ and Xanthomonas campestris KB88 were respectively incubated in Nutrient agar medium and inoculated at 0.2%, 0.5% and 1.0%. Mucor racemosus IFO 4581 and Candida albicans ATCC 64548 were respectively incubated in GY agar medium and then inoculated at 0.3% and 0.2%.
(§4) A paper disc (ADVANTEC, Φ:6 mm) was impregnated with a solution of test compound and dried under reduced pressure. The paper disc was put on the test plate and it was incubated for 24 hours at 37° C. After incubation, the inhibition zone diameter and clarity (A to E) were determined.

[4] = system: Micrococcus luteus ATCC9341; assay: Paper disc assay, Micrococcus luteus; assay type: cell-based; conditions: column 1
Protocol: as §2, §3, §4

[5] = system: Xanthomonas campestris KB88; assay: Paper disc assay, Xanthomonas campestris; assay type: cell-based; conditions: X
Protocol: as §2, §3, §4

[6] = system: M. hemolytica KB345 (Tilmicosin-sensitivity strain); assay: Paper disc assay, M. hemolytica KB345; assay type: cell-based, Mannhemia hemolytica; conditions: Table 4
Protocol: (1) Antibacterial activities against Mannheimia and Pasteurella were determined by the following steps: • 1) M. hemolytica KB345 (Tilmicosin-sensitivity strain) and M. hemolytica KB346 (Tilmicosin-low sensitivity strain) were provided. KB 345 strain stored at −80° C. was seeded to BHIB agar medium (10 mL) by using Microbank beads (Pro-Lab) and platinum nail. After statically incubating the KB 345 strain for 24 hours at 37° C., it was seeded to maintaining slant BHIB agar medium (7 mL) by using platinum loop, further statically incubated for 24 hours at 37° C. to obtain slant. One platinum loop of KB 345 strain stored at the slant was inoculated into a large test tube charged with BHIB liquid medium (10 mL) and then incubated for 24 hours at 37° C. with shaking. • 2) A paper disc (ADVANTEC, Φ:6 mm) was impregnated with a solution of test compound and dried under reduced pressure. • 3) To a melted BHIB agar medium was inoculated 1% of the broth obtained from step 1) above to prepare a test plate. After the medium set, the paper disc prepared in step 2) above was put on the plate and it was incubated at 37° C. • 4) After one day, the inhibition zone diameter and clarity (A to E) were determined. For KB346 strain, the same procedures were repeated.

| SMILES | MIC [1] | MIC [2] | Inhibition zone ([3]; 0.1 mg/6 mm disc) | Inhibition zone ([3]; 1 mg/6 mm disc) | Inhibition zone ([3]; 10 mg/6 mm disc) | Inhibition zone ([4]; 0.1 mg/6 mm disc) | Inhibition zone ([4]; 1 mg/6 mm disc) | Inhibition zone ([4]; 10 mg/6 mm disc) | Inhibition zone ([5]; 0.1 mg/6 mm disc) | Inhibition zone ([5]; 1 mg/6 mm disc) | Inhibition zone ([5]; 10 mg/6 mm disc) | further results |
| --- | --- | --- | --- | --- | --- | --- | --- | --- | --- | --- | --- | --- |
| CC[C@H]1OC(=O)C[C@@H](O)[C@H](C)[C@@H](O[C@@H]2OC(C)[C@@H](O)C(N(C)C)C2O)[C@@H](CCNCCn2cc(-c3ccccc3)nn2)C[C@@H](C)C(=O)/C=C/C(C)=C/[C@@H]1CO (stereo partly shown) [YT617] | 2 to 8 µg/mL (≈ 2.6 to 10.4 µM) | 4 µg/mL (≈ 5.19 µM) | – | – | – | – | – | – | – | – | – | – |
| CC[C@H]1OC(=O)C[C@@H](O)[C@H](C)[C@@H](O[C@@H]2OC(C)[C@@H](O)C(N(C)C)C2O)[C@@H](CCn2cc(-c3ccc4ccccc4n3)nn2)C[C@@H](C)C(=O)/C=C/C(C)=C/[C@@H]1CO (stereo partly shown) [YT734] | 2 to 4 µg/mL (≈ 2.57 to 5.14 µM) | 2 to 4 µg/mL (≈ 2.57 to 5.14 µM) | – | – | – | – | – | – | – | – | – | – |
| CC[C@H]1OC(=O)C[C@@H](O)[C@H](C)[C@@H](O[C@@H]2OC(C)[C@@H](O)C(N(C)C)C2O)[C@@H](CCn2cc(-c3cnc4ccccc4c3)nn2)C[C@@H](C)C(=O)/C=C/C(C)=C/[C@@H]1CO (stereo partly shown) [YT733] | 2 to 4 µg/mL (≈ 2.57 to 5.14 µM) | 4 µg/mL (≈ 5.14 µM) | – | – | – | – | – | – | – | – | – | – |
| CC[C@H]1OC(=O)C[C@@H](O)[C@H](C)[C@@H](O[C@@H]2OC(C)[C@@H](O)C(N(C)C)C2O)[C@@H](CCn2cc(-c3ccc(N(C)C)cc3)nn2)C[C@@H](C)C(=O)/C=C/C(C)=C/[C@@H]1CO[C@@H]1OC(C)[C@@H](O)C(OC)C1OC (stereo partly shown) [YT29, 20-(4-(4-dimethylaminophenyl)-1H-1,2,3-triazol-1-yl)-20-deoxodesmycosin] | – | – | 7 mm | 10 mm | 15 mm | 11 mm | 19.5 mm | 25.5 mm | 7 mm | 15 mm | 24 mm | – |
| CC[C@H]1OC(=O)C[C@@H](O)[C@H](C)[C@@H](O[C@@H]2OC(C)[C@@H](O)C(N(C)C)C2O)[C@@H](CCn2cc(CCCCCl)nn2)C[C@@H](C)C(=O)/C=C/C(C)=C/[C@@H]1CO[C@@H]1OC(C)[C@@H](O)C(OC)C1OC (stereo partly shown) [YT19, 20-(4-(4-chlorobutyl)-1H-1,2,3-triazol-1-yl)-20-deoxodesmycosin] | – | – | 7 mm | 10.5 mm | 15 mm | 13 mm | 19 mm | 26 mm | 7 mm | 14.5 mm | 23 mm | – |
| CC[C@H]1OC(=O)C[C@@H](O)[C@H](C)[C@@H](O[C@@H]2OC(C)[C@@H](O)C(N(C)C)C2O)[C@@H](CCn2cc(-c3ccsc3)nn2)C[C@@H](C)C(=O)/C=C/C(C)=C/[C@@H]1CO (stereo partly shown) [YT726] | 8 µg/mL (≈ 10.9 µM) | 8 µg/mL (≈ 10.9 µM) | – | – | – | – | – | – | – | – | – | – |
| CC[C@H]1OC(=O)C[C@@H](O)[C@H](C)[C@@H](O[C@@H]2OC(C)[C@@H](O)C(N(C)C)C2O)[C@@H](CCN(CCn2cc(-c3ccsc3)nn2)Cc2ccccc2)C[C@@H](C)C(=O)/C=C/C(C)=C/[C@@H]1CO (stereo partly shown) [YT674] | 2 to 4 µg/mL (≈ 2.31 to 4.62 µM) | 2 µg/mL (≈ 2.31 µM) | – | – | – | – | – | – | – | – | – | – |
| CC[C@H]1OC(=O)C[C@@H](O)[C@H](C)[C@@H](O[C@@H]2OC(C)[C@@H](O)C(N(C)C)C2O)[C@@H](CCn2cc(-c3ccccc3)nn2)C[C@@H](C)C(=O)/C=C/C(C)=C/[C@@H]1CO[C@@H]1OC(C)[C@@H](O)C(OC)C1OC (stereo partly shown) [YT13, 20-(4-phenyl-1H-1,2,3-triazol-1-yl)-20-deoxodesmycosin] | – | – | 9.5 mm | 12 mm | 15.5 mm | 15 mm | 21.5 mm | 27.5 mm | 8 mm | 17 mm | 23.5 mm | – |
| CC[C@H]1OC(=O)C[C@@H](O)[C@H](C)[C@@H](O[C@@H]2OC(C)[C@@H](O)C(N(C)C)C2O)[C@@H](CCN(CCn2cc(-c3ccccc3)nn2)Cc2ccc(I)cc2)C[C@@H](C)C(=O)/C=C/C(C)=C/[C@@H]1CO (stereo partly shown) [YT700] | 4 to 8 µg/mL (≈ 4.06 to 8.11 µM) | 8 µg/mL (≈ 8.11 µM) | – | – | – | – | – | – | – | – | – | – |
| CCC1OC(=O)CC(O)C(C)C(OC2OC(C)C(O)C(N(C)C)C2O)C(CCn2cc(-c3ccccc3)nn2)CC(C)C(=O)C=CC(C)=CC1CN=[N+]=[N-] (stereo not shown) [YT114, 20-(4-phenyl-1H-1,2,3-triazol-1-yl)-20-deoxo-23-azido-23-deoxy-5-O-mycaminosyltylonolide] | – | – | – | – | – | – | – | – | – | – | – | Inhibition zone ([6]; 3 mg/6 mm disk): 11.5 mm; Inhibition zone ([6]; 10 mg/6 mm disk): 17.5 mm; Inhibition zone ([6]; 30 mg/6 mm disk): 21.0 mm; Inhibition zone ([6]; 100 mg/6 mm disk): 21.0 mm |
